Results reported in patent US20220144809A1, “COMPOUNDS AND METHODS FOR THE TARGETED DEGRADATION OF ANDROGEN RECEPTOR AND ASSOCIATED METHODS OF USE” (Arvinas Operations, Inc., priority 2020, published 2022).

The molecules below were run on Androgen Receptor (AR) (assay: Androgen Receptor ELISA assay (AR degradation in LNCaP and/or VCaP cells)). Settings: degradation of AR, 5 hours incubation, R1881 in media.
Type: cell-based
Experimental: Assay for Testing AR Degradation Driven by Compounds of the Present Disclosure.
Androgen Receptor ELISA Assay. Compounds were evaluated in the following assay in LNCaP and/or VCaP cells utilizing similar protocols. The protocols used with VCaP cells are described below. The androgen receptor ELISA assay was performed using PathScan AR Sandwich ELISA (Cell Signaling Catalog#12850) according to the following assay steps.
VCaP cells were seeded at 40,000 cells/well at a volume of 100 μL/well in VCaP assay medium [Phenol red free RPMI (Gibco Cat#11835-030); 5% Charcoal Stripped (Dextran treated) FBS (Omega Scientific, Cat#FB-04); 1% penstrep (Life Technologies, Gibco Cat#: 10378-016)] in Corning 3904 plates. The cells were grown for a minimum of 3 days.
First, cells were dosed with compounds diluted in […]—in a polypropylene plate avoiding the use of outer columns according to the following protocol: (1)(i) 1000× stock plate in DMSO was made; (ii) 20 mM stock diluted 1/6.7 with DMSO (5 μL+28.3 μL DMSO)=3 mM into row H; (iii) serial dilutions in ½ log doses (10 μL of bifunctional compound+20 μL DMSO) was performed from row H towards row B with row A being reserved for DMSO; (iv) 7 doses total (final concentration in this 1000× plate will be 3 mM, 1 mM, 333 μM, 111 μM, etc). (2)(i) A 10× stock plate in media was made; (ii) 2.5 μL of the 1000× stock was trasnferred to a new 10× stock plate (use 12 channel pipet, start at A (DMSO control) work thru H. When 247.5 μL of media was added to this plate, it served as a 10× stock; (iii) made media+1 nM R1881 for making 10× stock plate; (iv) added 247.5 μL of media with 1 nM R1881 to each well of the 10× stock plate, mix.
Then 22 μL of 10× stock was added to cells and incubated for 5 hours. 1× Cell Signaling Cell lysis buffer was made (Catalogue #9803; comes with the kit) to have […], and was kept on ice. Media was aspirated, and 100 μL 1× cell lysis buffer/well was added. The cells were placed on a shaker located in a cold room for 10 minutes and shaken at speed 7. The lysate mixture was mix and 20 μL transferred to 100 μl of Diluent in ELISA plate (0.15 μg/ml-0.075 μg/ml). The lysate-diluent mixture was store at 4° C. overnight on a shaker located in a cold room at speed 5 (gentle swirl).
The lysate-diluent mixture was shaken for 30 minutes at 37° C. The mouse AR antibody, anti-mouse antibody, TMB, and STOP solution were allowed to come to room temperature. The 1×ELISA buffer included in kit was made and loaded in reservoir. Media from the plate was discarded, the ELISA plate was tapped hard on paper towel, and washed 4×200 μl ELISA wash buffer using a plate washer for the first three washes and an eight channel aspirator for the fourth wash to more thoroughly aspirate the solution.
Next, 100 μL/well of mouse AR detection Ab was added; the plate was covered and shaken at 37° C. for 1 hour; media was discarded from the plates, the plates tapped on a paper towel and washed four times with 200 μL ELISA wash buffer with a plate washer for the first three washes and an eight channel aspirator for the fourth wash; 100 μL/well of anti-mouse—HRP conjugated Ab (comes with the kit) was added; the plates wascover and shaken at 37° C. for 30 minutes; the TMB reagent was allowed to come to room temperature; the media from the plate was discarded, the plates tapped on paper towel, and washed four times with 200 μL ELISA wash buffer with a plate washer for the first three washes and an eight channel aspirator for the fourth wash; plates were tapped on paper towl; 100 μL TMB was added to each well and the plate shaken for 2 minutes—while watching color. STOP solution (100 μL) was added when light blue color developed. The plates were shake and read at 450 nm.
Data was analyzed and plotted using GraphPad Prism software. Exemplary compounds of Table 1 were assayed and the data shown below in Table 2. […]

Compound	DC50	Dmax Code
CC1(C)C(=O)N(c2ccc(C#N)c(C(F)(F)F)c2)C(=S)N1Cc1ccc(N2CCC(CN3CCN(c4ccc5c(c4)C(=O)N(C4CCC(=O)NC4=O)C5=O)CC3)CC2)nc1 (centres unmarked) [Compound 3, 4-(3-((6-(4-((4-(2-(2,6-dioxopiperidin-3-yl)-1,3-dioxoisoindolin-5-yl)piperazin-1-yl)methyl)piperidin-1-yl)pyridin-3-yl)methyl)-4,4-dimethyl-5-oxo-2-thioxoimidazolidin-1-yl)-2-(trifluoromethyl)benzonitrile]	< 1 nM	A (A≥70)
CCN(CC1CCN(c2ccc(CN3C(=S)N(c4ccc(C#N)c(C(F)(F)F)c4)C(=O)C3(C)C)cn2)CC1)[C@H]1C[C@H](Oc2ccc3c(c2)C(=O)N(C2CCC(=O)NC2=O)C3=O)C1 (some centres unmarked) [Compound 4, 4-(3-((6-(4-((((1r,3r)-3-((2-(2,6-dioxopiperidin-3-yl)-1,3-dioxoisoindolin-5-yl)oxy)cyclobutyl)(ethyl)amino)methyl)piperidin-1-yl)pyridin-3-yl)methyl)-4,4-dimethyl-5-oxo-2-thioxoimidazolidin-1-yl)-2-(trifluoromethyl)benzonitrile]	< 1 nM	C (C<50)
N#Cc1ccc(N2C(=O)C3(CCC3)N(c3ccc(N4CCC(CN5CCN(c6ccc7c(c6)C(=O)N(C6CCC(=O)NC6=O)C7=O)CC5)CC4)c(F)c3)C2=S)cc1Cl (centres unmarked) [Compound 5, 2-chloro-4-(5-(4-(4-((4-(2-(2,6-dioxopiperidin-3-yl)-1,3-dioxoisoindolin-5-yl)piperazin-1-yl)methyl)piperidin-1-yl)-3-fluorophenyl)-8-oxo-6-thioxo-5,7-diazaspiro[3.4]octan-7-yl)benzonitrile]	< 1 nM	A (A≥70)

Now from value to molecule, other results behind:

DC50	Compound	Dmax Code
< 1 nM	N#Cc1ncc(N2C(=O)C3(CCC3)N(c3ccc(CCCCCN4CCN(c5ccc6c(c5)C(=O)N(C5CCC(=O)NC5=O)C6=O)CC4)cc3)C2=S)cc1Cl (centres unmarked) [Compound 1, 3-chloro-5-(5-(4-(5-(4-(2-(2,6-dioxopiperidin-3-yl)-1,3-dioxoisoindolin-5-yl)piperazin-1-yl)pentyl)phenyl)-8-oxo-6-thioxo-5,7-diazaspiro[3.4]octan-7-yl)picolinonitrile]	A (A≥70)
< 1 nM	N#Cc1ncc(N2C(=O)C3(CCC3)N(c3ccc(N4CCC(CN5CCN(c6ccc7c(c6)C(=O)N(C6CCC(=O)NC6=O)C7)CC5)CC4)cc3)C2=S)cc1Cl (centres unmarked) [Compound 2, 3-chloro-5-(5-(4-(4-((4-(2-(2,6-dioxopiperidin-3-yl)-3-oxoisoindolin-5-yl)piperazin-1-yl)methyl)piperidin-1-yl)phenyl)-8-oxo-6-thioxo-5,7-diazaspiro[3.4]octan-7-yl)picolinonitrile]	A (A≥70)
1 to 10 nM	COc1cc(N2C(=O)C3(CCC3)N(c3ccc(N4CCC(CN5CCN(c6ccc7c(c6)C(=O)N(C6CCC(=O)NC6=O)C7=O)CC5)CC4)c(F)c3)C2=S)ccc1C#N (centres unmarked) [Compound 6, 4-(5-(4-(4-((4-(2-(2,6-dioxopiperidin-3-yl)-1,3-dioxoisoindolin-5-yl)piperazin-1-yl)methyl)piperidin-1-yl)-3-fluorophenyl)-8-oxo-6-thioxo-5,7-diazaspiro[3.4]octan-7-yl)-2-methoxybenzonitrile]	A (A≥70)
1 to 10 nM	COc1cc(N2C(=O)C3(CCC3)N(c3ccc(N4CCC(CN5CCN(c6ccc7c(c6)C(=O)N(C6CCC(=O)NC6=O)C7=O)CC5)CC4)cc3)C2=S)ccc1C#N (centres unmarked) [Compound 7, 4-(5-(4-(4-((4-(2-(2,6-dioxopiperidin-3-yl)-1,3-dioxoisoindolin-5-yl)piperazin-1-yl)methyl)piperidin-1-yl)phenyl)-8-oxo-6-thioxo-5,7-diazaspiro[3.4]octan-7-yl)-2-methoxybenzonitrile]	B (50≤B<70)
